# How the values were obtained:
# [1] = PANTAX phase Ib: safety, DLT and MTD of SCO-101 with Gem and Nab; assay type: in vivo
# Method: ORR, clinical benefit rate (CBR), median progression free survival (mPFS), and mOS were included as secondary end points.
# Patients were recruited at four centers, two in Denmark and two in Germany.
# Study treatment is illustrated in Fig. 1. […] Chemotherapy with Gem and Nab was given days 6, 13, and 20 in each cycle. […] During the first cycle, patients received treatment with chemotherapy at a dose corresponding to 80% of the recommended dose, i.e., 100 mg/m^2 Nab and 800 mg/m^2 Gem given as infusions over 30 min. […] The dose of chemotherapy was further adjusted to the patient´s tolerability in accordance with the chemotherapy-product monographs. Standard antiemetics were allowed as was the use of granulocyte colony-stimulating factor (G-CSF) in case of treatment-induced neutropenia.
# Toxicity was assessed at baseline and weekly at days 1, 6, 13, and 20 before each treatment.
# [2] = tested on: patients with colorectal cancer; conditions: SCO-101 with FOLFIRI, patients with prior progression on FOLFIRI, cited from earlier work
# [3] = 50 mg SCO-101 (cohort 1, 3 patients) + Gem/Nab, any CTC-AE grade
# [4] = 50 mg SCO-101 (cohort 1, 3 patients) + Gem/Nab, grade ≥ 3
# [5] = 100 mg SCO-101 (cohort 2, 3 patients) + Gem/Nab, any CTC-AE grade
# [6] = 150 mg SCO-101 (cohort 3, 6 patients) + Gem/Nab, any CTC-AE grade
# [7] = 150 mg SCO-101 (cohort 3, 6 patients) + Gem/Nab, grade ≥ 3
# [8] = 200 mg SCO-101 (cohort 4, 6 patients) + Gem/Nab, any CTC-AE grade
# [9] = 250 mg SCO-101 (cohort 5, 4 patients) + Gem/Nab, any CTC-AE grade
# [10] = 250 mg SCO-101 (cohort 5, 4 patients) + Gem/Nab, grade ≥ 3
# [11] = 22 patients, all dose levels, with Gem and Nab
# [12] = sum of cohorts (22 patients) + Gem/Nab, any CTC-AE grade
# [13] = sum of cohorts (22 patients) + Gem/Nab, grade ≥ 3
structure (smiles),measurement,setting,value
O=C(Nc1cc(C(F)(F)F)cc(C(F)(F)F)c1)Nc1ccc(Br)cc1-c1nnn[nH]1 [SCO-101],"Alopecia, patients with treatment-related AE",[1]; [3],2
same,"Athralgia, patients with treatment-related AE",[1]; [3],1
same,"Chills, patients with treatment-related AE",[1]; [3],1
same,"Diarrhea, patients with treatment-related AE",[1]; [3],3
same,"Dizziness, patients with treatment-related AE",[1]; [3],1
same,"Fatigue, patients with treatment-related AE",[1]; [3],3
same,"Headache, patients with treatment-related AE",[1]; [3],1
same,"Hypertension, patients with treatment-related AE",[1]; [3],1
same,"Nail disorder, patients with treatment-related AE",[1]; [3],1
same,"Nausea, patients with treatment-related AE",[1]; [3],3
same,"Pain, patients with treatment-related AE",[1]; [3],2
same,"Paraestesia, patients with treatment-related AE",[1]; [3],1
same,"Rash, patients with treatment-related AE",[1]; [3],2
same,"↑B-bilirubin, patients with treatment-related AE",[1]; [3],2
same,"↑B-lactate, patients with treatment-related AE",[1]; [3],1
same,"↓B-hemoglobin, patients with treatment-related AE",[1]; [3],2
same,"↓B-lymphocytes, patients with treatment-related AE",[1]; [3],3
same,"↓B-neutrophils, patients with treatment-related AE",[1]; [3],3
same,"↓B-thrombocytes, patients with treatment-related AE",[1]; [3],3
same,"Chills, patients with treatment-related AE",[1]; [4],1
same,"Hypertension, patients with treatment-related AE",[1]; [4],1
same,"↑B-lactate, patients with treatment-related AE",[1]; [4],1
same,"↓B-lymphocytes, patients with treatment-related AE",[1]; [4],2
same,"↓B-neutrophils, patients with treatment-related AE",[1]; [4],3
same,"Alopecia, patients with treatment-related AE",[1]; [5],2
same,"Candidiasis, patients with treatment-related AE",[1]; [5],1
same,"Diarrhea, patients with treatment-related AE",[1]; [5],3
same,"Dysgeusia, patients with treatment-related AE",[1]; [5],1
same,"Fatigue, patients with treatment-related AE",[1]; [5],1
same,"Nail disorder, patients with treatment-related AE",[1]; [5],1
same,"Nausea, patients with treatment-related AE",[1]; [5],3
same,"Oedema, patients with treatment-related AE",[1]; [5],1
same,"Paraestesia, patients with treatment-related AE",[1]; [5],2
same,"Rash, patients with treatment-related AE",[1]; [5],2
same,"Stomatitis, patients with treatment-related AE",[1]; [5],1
same,"↑B-bilirubin, patients with treatment-related AE",[1]; [5],1
same,"↓B-hemoglobin, patients with treatment-related AE",[1]; [5],1
same,"↓B-neutrophils, patients with treatment-related AE",[1]; [5],1
same,"Paraestesia, patients with treatment-related AE","[1]; 100 mg SCO-101 (cohort 2, 3 patients) + Gem/Nab, grade ≥ 3",1
same,"Alopecia, patients with treatment-related AE",[1]; [6],2
same,"Athralgia, patients with treatment-related AE",[1]; [6],1
same,"Candidiasis, patients with treatment-related AE",[1]; [6],1
same,"Constipation, patients with treatment-related AE",[1]; [6],1
same,"Diarrhea, patients with treatment-related AE",[1]; [6],3
same,"Fatigue, patients with treatment-related AE",[1]; [6],2
same,"Headache, patients with treatment-related AE",[1]; [6],1
same,"Jaundice, patients with treatment-related AE",[1]; [6],1
same,"Nausea, patients with treatment-related AE",[1]; [6],2
same,"Pain, patients with treatment-related AE",[1]; [6],1
same,"Rash, patients with treatment-related AE",[1]; [6],1
same,"Stomatitis, patients with treatment-related AE",[1]; [6],2
same,"TTP, patients with treatment-related AE",[1]; [6],1
same,"Vomitting, patients with treatment-related AE",[1]; [6],2
same,"↑B-bilirubin, patients with treatment-related AE",[1]; [6],2
same,"↓B-hemoglobin, patients with treatment-related AE",[1]; [6],4
same,"↓B-neutrophils, patients with treatment-related AE",[1]; [6],1
same,"↓B-thrombocytes, patients with treatment-related AE",[1]; [6],1
same,"Fatigue, patients with treatment-related AE",[1]; [7],1
same,"Jaundice, patients with treatment-related AE",[1]; [7],1
same,"TTP, patients with treatment-related AE",[1]; [7],1
same,"↑B-bilirubin, patients with treatment-related AE",[1]; [7],1
same,"↓B-hemoglobin, patients with treatment-related AE",[1]; [7],2
same,blood bilirubin in the DLT case,"[1]; 150 mg SCO-101, one patient",24 µmol/L
same,"Alopecia, patients with treatment-related AE",[1]; [8],4
same,"Constipation, patients with treatment-related AE",[1]; [8],1
same,"Diarrhea, patients with treatment-related AE",[1]; [8],2
same,"Dizziness, patients with treatment-related AE",[1]; [8],1
same,"Dysgeusia, patients with treatment-related AE",[1]; [8],1
same,"Fatigue, patients with treatment-related AE",[1]; [8],4
same,"Headache, patients with treatment-related AE",[1]; [8],1
same,"Jaundice, patients with treatment-related AE",[1]; [8],1
same,"Loss of appetite, patients with treatment-related AE",[1]; [8],2
same,"Nausea, patients with treatment-related AE",[1]; [8],3
same,"Oedema, patients with treatment-related AE",[1]; [8],1
same,"Pain, patients with treatment-related AE",[1]; [8],2
same,"Paraestesia, patients with treatment-related AE",[1]; [8],1
same,"Rash, patients with treatment-related AE",[1]; [8],2
same,"Stomatitis, patients with treatment-related AE",[1]; [8],4
same,"Vomitting, patients with treatment-related AE",[1]; [8],1
same,"↑B-bilirubin, patients with treatment-related AE",[1]; [8],4
same,"↓B-hemoglobin, patients with treatment-related AE",[1]; [8],3
same,"↓B-neutrophils, patients with treatment-related AE",[1]; [8],1
same,"↓B-thrombocytes, patients with treatment-related AE",[1]; [8],2
same,"↓B-neutrophils, patients with treatment-related AE","[1]; 200 mg SCO-101 (cohort 4, 6 patients) + Gem/Nab, grade ≥ 3",1
same,"Candidiasis, patients with treatment-related AE",[1]; [9],1
same,"Constipation, patients with treatment-related AE",[1]; [9],1
same,"Dysgeusia, patients with treatment-related AE",[1]; [9],1
same,"Fatigue, patients with treatment-related AE",[1]; [9],2
same,"Jaundice, patients with treatment-related AE",[1]; [9],1
same,"Nausea, patients with treatment-related AE",[1]; [9],2
same,"Paraestesia, patients with treatment-related AE",[1]; [9],3
same,"Rash, patients with treatment-related AE",[1]; [9],1
same,"↑B-bilirubin, patients with treatment-related AE",[1]; [9],2
same,"↓B-hemoglobin, patients with treatment-related AE",[1]; [9],1
same,"↓B-neutrophils, patients with treatment-related AE",[1]; [9],1
same,"↓B-thrombocytes, patients with treatment-related AE",[1]; [9],2
same,"↓B-neutrophils, patients with treatment-related AE",[1]; [10],1
same,"↓B-thrombocytes, patients with treatment-related AE",[1]; [10],2
same,cases of clinical jaundice associated with bilirubin elevation,"[1]; 22 patients, all dose levels",three
same,patients with SAEs (nineteen SAEs),"[1]; 22 patients, all dose levels",11 patients
same,suspected unexpected serious adverse reactions (SUSARs),"[1]; 22 patients, all dose levels",No suspected unexpected serious adverse reactions
same,cases with elevation of blood bilirubin,[1]; [11],55%
same,patients with a SCO-101-related AE grade 4 (thrombocytopenia),[1]; [11],9%
same,maximum tolerated dose (MTD),"[1]; SCO-101 daily for 6 days, bi-weekly schedule, with 80% dose of Gem and Nab, PDAC patients",200 mg
same,"dose-limiting toxicities (DLTs), first cycle","[1]; dose level 3, 150 mg SCO-101, six patients, with Gem and Nab",One
same,"dose-limiting toxicities (DLTs), first cycle","[1]; dose level 4, 200 mg SCO-101, with Gem and Nab",No DLTs
same,"dose-limiting toxicities (DLTs), first cycle","[1]; dose level 5, 250 mg SCO-101, thrombocytopenia AE grade 4, with Gem and Nab",two
same,time to resolution of bilirubin elevation,[1]; not accompanied by biochemical hepatotoxicity,≤ 1 week
same,SAEs deemed related to SCO-101,"[1]; of nineteen SAEs, transiently increased blood bilirubin AE grade 3 at 150 mg SCO-101",one
same,"Alopecia, patients with treatment-related AE",[1]; [12],10
same,"Athralgia, patients with treatment-related AE",[1]; [12],2
same,"Candidiasis, patients with treatment-related AE",[1]; [12],3
same,"Chills, patients with treatment-related AE",[1]; [12],1
same,"Constipation, patients with treatment-related AE",[1]; [12],3
same,"Diarrhea, patients with treatment-related AE",[1]; [12],11
same,"Dizziness, patients with treatment-related AE",[1]; [12],2
same,"Dysgeusia, patients with treatment-related AE",[1]; [12],3
same,"Fatigue, patients with treatment-related AE",[1]; [12],12
same,"Headache, patients with treatment-related AE",[1]; [12],3
same,"Hypertension, patients with treatment-related AE",[1]; [12],1
same,"Jaundice, patients with treatment-related AE",[1]; [12],3
same,"Loss of appetite, patients with treatment-related AE",[1]; [12],2
same,"Nail disorder, patients with treatment-related AE",[1]; [12],2
same,"Nausea, patients with treatment-related AE",[1]; [12],13
same,"Oedema, patients with treatment-related AE",[1]; [12],2
same,"Pain, patients with treatment-related AE",[1]; [12],5
same,"Paraestesia, patients with treatment-related AE",[1]; [12],7
same,"Rash, patients with treatment-related AE",[1]; [12],8
same,"Stomatitis, patients with treatment-related AE",[1]; [12],7
same,"TTP, patients with treatment-related AE",[1]; [12],1
same,"Vomitting, patients with treatment-related AE",[1]; [12],3
same,"↑B-lactate, patients with treatment-related AE",[1]; [12],1
same,"↓B-hemoglobin, patients with treatment-related AE",[1]; [12],11
same,"↓B-lymphocytes, patients with treatment-related AE",[1]; [12],3
same,"↓B-neutrophils, patients with treatment-related AE",[1]; [12],7
same,"↓B-thrombocytes, patients with treatment-related AE",[1]; [12],8
same,"Chills, patients with treatment-related AE",[1]; [13],1
same,"Fatigue, patients with treatment-related AE",[1]; [13],1
same,"Hypertension, patients with treatment-related AE",[1]; [13],1
same,"Jaundice, patients with treatment-related AE",[1]; [13],1
same,"Paraestesia, patients with treatment-related AE",[1]; [13],1
same,"TTP, patients with treatment-related AE",[1]; [13],1
same,"↑B-lactate, patients with treatment-related AE",[1]; [13],1
same,"↓B-hemoglobin, patients with treatment-related AE",[1]; [13],2
same,"↓B-lymphocytes, patients with treatment-related AE",[1]; [13],2
same,"↓B-neutrophils, patients with treatment-related AE",[1]; [13],5
same,"↓B-thrombocytes, patients with treatment-related AE",[1]; [13],2
same,tumor response,[2]; 4 of 25 patients,16%
same,mOS,[2],10.4 months

# From publication PMC12048447, “PANTAX: a phase Ib clinical trial of the efflux pump inhibitor SCO-101 in combination with gemcitabine and nab-paclitaxel in non-resectable or metastatic pancreatic cancer” (Investigational New Drugs, 2025)
